Test results as given in ChEMBL document CHEMBL1949552, “Synthesis and interaction with midkine of biotinylated chondroitin sulfate tetrasaccharides” (Bioorg Med Chem Lett, 2012).
pKd: −log10 of the molar value.

Molecular target: T1, Midkine (Homo sapiens, UniProt P21741)
T1 sequence (P21741 whole entry): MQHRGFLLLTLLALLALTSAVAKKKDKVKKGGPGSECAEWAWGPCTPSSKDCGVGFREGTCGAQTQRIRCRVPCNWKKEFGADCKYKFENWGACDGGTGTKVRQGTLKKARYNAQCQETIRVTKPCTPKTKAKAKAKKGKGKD
Assay: Binding affinity to recombinant midkine after 3 mins

pKd	SMILES
5.69	CC(=O)N[C@H]1[C@H](O[C@H]2[C@H](O)[C@@H](O)[C@H](O[C@H]3[C@@H](O)[C@@H](CO)O[C@@H](O[C@H]4[C@H](O)[C@@H](O)[C@H](OCCNC(=O)CCOCCOCCOCCOCCNC(=O)CCCC[C@@H]5SC[C@@H]6NC(=O)N[C@@H]65)O[C@@H]4C(=O)O)[C@@H]3NC(C)=O)O[C@@H]2C(=O)O)O[C@H](CO)[C@H](O)[C@@H]1O
8.58	CC(=O)N[C@H]1[C@H](O[C@H]2[C@H](O)[C@@H](O)[C@H](O[C@@H]3[C@@H](NC(C)=O)[C@H](O[C@H]4[C@H](O)[C@@H](O)[C@H](OCCNC(=O)CCOCCOCCOCCOCCNC(=O)CCCC[C@@H]5SC[C@@H]6NC(=O)N[C@@H]65)O[C@@H]4C(=O)O)O[C@H](COS(=O)(=O)O)[C@@H]3OS(=O)(=O)O)O[C@@H]2C(=O)O)O[C@H](COS(=O)(=O)O)[C@H](OS(=O)(=O)O)[C@@H]1O
7.75	CC(=O)N[C@H]1[C@H](O[C@H]2[C@H](O)[C@@H](O)[C@H](O[C@@H]3[C@@H](NC(C)=O)[C@H](O[C@H]4[C@H](O)[C@@H](O)[C@H](OCCNC(=O)CCOCCOCCOCCOCCNC(=O)CCCC[C@@H]5SC[C@@H]6NC(=O)N[C@@H]65)O[C@@H]4C(=O)O)O[C@H](CO)[C@@H]3OS(=O)(=O)O)O[C@@H]2C(=O)O)O[C@H](CO)[C@H](OS(=O)(=O)O)[C@@H]1O
7.94	CC(=O)N[C@H]1[C@H](O[C@H]2[C@H](O)[C@@H](O)[C@H](O[C@@H]3[C@@H](NC(C)=O)[C@H](O[C@H]4[C@H](O)[C@@H](O)[C@H](OCCNC(=O)CCOCCOCCOCCOCCNC(=O)CCCC[C@@H]5SC[C@@H]6NC(=O)N[C@@H]65)O[C@@H]4C(=O)O)O[C@H](CO)[C@@H]3OS(=O)(=O)O)O[C@@H]2C(=O)O)O[C@H](COS(=O)(=O)O)[C@H](OS(=O)(=O)O)[C@@H]1O
